US20240415819A1, “MACROCYCLIC COMPOUNDS AS PROTEASOME SUBUNIT BETA TYPE-5 INHIBITORS” (Lead Discovery Center GmbH, priority 2021, published 2024)

Experiments:
HT-29 cells = experiment: CellTiter-Glo luminescent cell viability assay with HT-29 cells (72h incubation); type: cell-based, human; settings: Homo sapiens, HT-29, HT29 cells, read-out: CTG HT29
Description: Cell Titer Glo Viability Assay with HT-29 Cells (72h Incubation) The CellTiter-Glo Luminescent Cell Viability Assay (Promega) is a homogeneous method of determining the number of viable cells in culture. It is based on quantification of ATP, indicating the presence of metabolically active cells. On day 1 400 HT-29 cells per well are seeded in white 384well plates (Greiner, #781080) in 25 μl cell culture medium (DMEM (PAN-Biotech #P04-03590)+10% FCS+glutamine). After incubation for 24 h at 37° C./5% CO2 compounds or DMSO are added at different concentrations by Echo Liquid Handling Technology. Cells are further incubated in humidified chambers for 72 h at 37° C. and 5% CO2. Cells treated with the compound vehicle DMSO are used as positive controls and cells treated with 10 μM Staurosporine serve as negative controls. At day 5-72h after compound addition—the CellTiter Glo Reagent is prepared according to the instructions of the kit (Promega Inc.): Reagent is mixed 1:1 with cell culture medium. Thereon, mixture and assay plates are equilibrated at room temperature for 20 min. Equal volumes of the reagent-medium-mixture is added to the volume of culture medium present in each well. The plates are mixed at […] for 2 minutes on an orbital shaker. The microplates are then incubated at room temperature for 10 minutes for stabilization of the luminescent signal. Following incubation the luminescence is recorded on a Victor microplate reader (Perkin Elmer) using a 200 ms integration time. The data is then analyzed with Excel using the XLFIT Plugin (dose response Fit 205) for IC50-determination. As quality control the Z′-factor is calculated from 16 positive and negative control values. […] Inhibition is indicated as IC50 [nM] (“-”=not measured).

[1] = biological target: T1, β5 subunit of the human immunoproteasome (IPS) (Homo sapiens, UniProt P28062); experiment: β5 inhibition assay, human immunoproteasome (Suc-LLVY-AMC); type: biochemical; settings: IC50 class, Suc-LLVY-AMC substrate
T1 construct: purchased Boston Biochem E-370
Description: The enzymatic activity of the β5 subunit of the human constitutive proteasome (CPS) is analyzed. In another assay, which differs from the assay of the human constitutive proteasome only in using the human immunoproteasome (IPS) the enzymatic activity of the β5 subunit of the human immunoproteasome (IPS) is analyzed. Incubation of the enzyme with its fluorogenic substrate Suc-LLVY-AMC leads to liberation of the fluorescent dye AMC which can be measured with a suitable plate reader. • 100 mM HEPES pH7.5 • 50 mM NaCl • 0.02% SDS • 1 mM DTT (add fresh) • Victor X5 (Perkin Elmer) • Label: Umbeliferone (0.1s) • Excitation wavelength: 355 nm • Emission wavelength: 460 nm • 4 μl human cPS or IPS enzyme in assay buffer (final assay concentration 1 nM) or 4 μl assay buffer for negative controls • Compound addition via acoustic dispenser (Echo 520, Labcyte) • Mix and incubate @ RT for 10 min • 4 μl Suc-LLVY-AMC substrate (final assay concentration 22.6 μM) • Mix and incubate @ RT for 4 h (dark) • Stop reaction with 4 μl Bortezomib (final assay concentration 1 μM) • 15 min @ RT • Measure (Excitation 355 nm; Emission 460 nm)

[2] = test system: A549 (human lung carcinoma cell line); experiment: Glo assay of A549 cells (Table 3; ProteasomeGlo plating scheme); type: cell-based; settings: Homo sapiens; A549 cells; read-out: PGLo A549
Excerpt: Inhibition is indicated as IC50 [nM] (“-”=not measured). […] • Chymotrypsin-Like Cell-Based Proteasome-GloTM Assay (Promega; […]) • Cell culture 384-well plates (Greiner BioOne; 781080) • Dispensing cassette, MultiDrop Standard tube dispensing cassette (Thermo Scientific; 24072670) • DPBS (Pan BioTech; P04-36500) • Cell culture 384-well plates (Greiner BioOne; 781080) • CPD source plate: diamond-shape plate (Labcyte; LP-0200) • Intermediate plate (Labcyte; P-05525) [table] • a. Remove the plates with cells from the incubator. • b. Take all the plates including the compound plate, intermediate plate and Staurosporine plate to the ECHO. • c. Click on “Open” in the ECHO software and select the protocol “QLI5_25ul_30 uM-Grenier”. • d. Follow the on-screen prompts and instructions once you click “Start” to insert the compound plate, intermediate plate and destination plates. • e. Change the final number of destination plates on the program. • f. Follow the on-screen prompts and instructions once you click “Start” to load the Staurosporine and destination plates. • g. Once all the compounds, DMSO and Staurosporine have been transferred, place the destination plates in a wet tissue box. • h. Place the destination plates back into the incubator and incubate at 37° C., 5% CO2 for 105 minutes. • i. Re-seal all the compound+Stauro diamond and intermediate plates and store in the dark. Chymotrypsin like ProteasomeGlo Assay • 1. Thaw the components of the ProteasomeGlo assay at room temperature including the ProteasomeGlo Buffer, the lyophilized Luciferin Detection Reagent and the Suc-LLVY-Glo Substrate. • 2. Reconstitute the Luciferin Detection Reagent in the amber coloured bottle by adding 50 ml of the ProteasomeGlo Buffer. • 3. Vortex the Suc-LLVY-Glo Substrate briefly to reconstitute the Substrate well. • 4. Spin down the Substrate and add 250 μl of the Substrate to the reconstituted Luciferin Detection Reagent from step 2. • 5. Briefly vortex the amber bottle with the mix to prepare a homogenous solution. • 6. Place the mix prepared in step 5 to sit at room temperature for 60 minutes. • 7. After 60 minutes, pipette 25 μl of the mix from step 5 into all wells with the cells. • 8. Shake the plates for 2-5 minutes to ensure the complete mixing of the ProteasomeGlo reagent with the cells. • 9. Leave the plates in the dark for 10-15 minutes. • 10. Measure the luminescence read-out using the Viktor and the protocol “Luminescence_384Well_0.2 sec”. (Note: The Protoeasome-GloTM Reagent (combined Proteasome-GloTM Substrate, Proteasome-GloTM Buffer and Luciferin Detection Reagent) can be stored at 4° C. or -20° C. for 1 month with minimal loss of activity.)

[3] = biological target: T2, β5 subunit of the human constitutive proteasome (CPS) (Homo sapiens, UniProt P28074); experiment: β5 inhibition assay, human constitutive proteasome (Suc-LLVY-AMC); type: biochemical; settings: IC50 class, Suc-LLVY-AMC substrate
T2 construct: purchased Boston Biochem E-360
Description: The enzymatic activity of the β5 subunit of the human constitutive proteasome (CPS) is analyzed. In another assay, which differs from the assay of the human constitutive proteasome only in using the human immunoproteasome (IPS) the enzymatic activity of the β5 subunit of the human immunoproteasome (IPS) is analyzed. […] Inhibition is indicated as IC50 [nM] (“-”=not measured).

SMILES | IC50 (HT-29 cells) | other results
Cc1cccc(CC(=O)N[C@H]2CC(=O)N3CCCC(CCOc4ccc(C)c(c4)CNC(=O)[C@H](CCc4ccccc4)NC2=O)C3)c1 (stereo partly drawn) [Compound 62, N-((9S,12S)-5^4-methyl-8,11,14-trioxo-9-phenethyl-4-oxa-7,10-diaza-1(3,1)-piperidina-5(1,3)-benzenacyclotetradecaphane-12-yl)-2-(m-tolyl)acetamide] | < 100 nM | 
Cc1ccc2cc1CNC(=O)[C@H](CCc1ccccc1)NC(=O)[C@@H](NC(=O)CCOCCCC1CCCC1)CC(=O)N1CCCC(CCO2)C1 (stereo partly drawn) [Compound 620, 3-(3-cyclopentylpropoxy)-N-((9S,12S)-5^4-methyl-8,11,14-trioxo-9-phenethyl-4-oxa-7,10-diaza-1(3,1)-piperidina-5(1,3)-benzenacyclotetradecaphane-12-yl)propanamide] |  | IC50 [1]: < 100 nM; IC50 [2]: < 100 nM; IC50 [3]: < 100 nM
Cc1ccc2cc1CNC(=O)[C@H](CCc1ccccc1)NC(=O)[C@@H](NS(=O)(=O)CCCc1ccccc1)CC(=O)N1CCCC(CCO2)C1 (stereo partly drawn) [Compound 44, N-((9S,12S)-5^4-methyl-8,11,14-trioxo-9-phenethyl-4-oxa-7,10-diaza-1(3,1)-piperidina-5(1,3)-benzenacyclotetradecaphane-12-yl)-3-phenyloropane-1-sulfonamide] | < 100 nM | 
Cc1ccc2cc1CNC(=O)C(CCc1ccccc1)NC(=O)CCC(=O)N1CCCC(CCO2)C1 (stereo not drawn) [Compound 495, 5^4-methyl-9-phenethyl-4-oxa-7,10-diaza-1(3,1)-piperidina-5(1,3)-benzenacyclotetradecaphane-8,11,14-trione] | 100 to 500 nM | 
Cc1ccc2cc1CNC(=O)[C@H](CCc1ccccc1)NC(=O)CCCCCC(=O)N1CCCC(CCO2)C1 (stereo partly drawn) [Compound 22, (9S)-5^4-methyl-9-phenethyl-4-oxa-7,10-diaza-1(3,1)-piperidina-5(1,3)-benzenacycloheptadecaphane-8,11,17-trione] | 1000 to 5000 nM | 
CCC1(C(=O)N[C@H]2CC(=O)N3CCCC(CCOc4ccc(C)c(c4)CNC(=O)[C@H](CCc4ccccc4)NC2=O)C3)CCNCC1 (stereo partly drawn) [Compound 151, 4-ethyl-N-((9S,12S)-5^4-methyl-8,11,14-trioxo-9-phenethyl-4-oxa-7,10-diaza-1(3,1)-piperidina-5(1,3)-benzenacyclotetradecaphane-12-yl)piperidine-4-carboxamide] | < 100 nM | 
Cc1ccc2cc1CNC(=O)[C@H](CCc1ccccc1)NC(=O)[C@@H](NC(=O)CCNC(=O)C1CCC3(CCOCC3)CC1)CC(=O)N1CCCC(CCO2)C1 (stereo partly drawn) [Compound 576] |  | IC50 [1]: < 100 nM; IC50 [3]: < 100 nM
Cc1ccc2cc1CNC(=O)[C@H](CCc1ccccc1)NC(=O)[C@@H](NC(=O)Cc1cccc(Cl)c1)CC(=O)N1CCCC(CCO2)C1 (stereo partly drawn) [Compound 61, 2-(3-chlorophenyl)-N-((9S,12S)-54-methyl-8,11,14-trioxo-9-phenethyl-4-oxa-7,10-diaza-1(3,1)-piperidina-5(1,3)-benzenacyclotetradecaphane-12-yl)acetamide] | < 100 nM | 

Second part, led by results:

IC50 (HT-29 cells) | SMILES | other results
100 to 500 nM | CC(=O)N[C@H]1CC(=O)N2CCC(CC2)Oc2ccc(C)c(c2)CNC(=O)[C@H](CCc2ccccc2)NC1=O [Compound 254, N-((7S,10S)-3^4-methyl-6,9,12-trioxo-7-phenethyl-2-oxa-5,8-diaza-1(4,1)-piperidina-3(1,3)-benzenacyclododecaphane-10-yl)acetamide] | 
100 to 500 nM | CC(=O)N[C@H]1CC(=O)N2CCCC(CCOc3ccc(C)c(c3)CNC(=O)C(c3cnn(CCS(=O)(=O)O)c3)NC1=O)C2 (stereo partly drawn) [Compound 572, N-(4-((12S)-12-acetamido-5^4-methyl-8,11,14-trioxo-4-oxa-7,10-diaza-1(3,1)-piperidina-5(1,3)-benzenacyclotetradecaphane-9-yl)-1H-pyrazol-1-yl)ethane-1-sulfonic acid] | 
100 to 500 nM | CC(=O)N[C@H]1CC(=O)N2CCC(C2)Oc2ccc(C)c(c2)CNC(=O)[C@H](CCc2ccccc2)NC1=O (stereo partly drawn) [Compound 261, N-((7S,10S)-3^4-methyl-6,9,12-trioxo-7-phenethyl-2-oxa-5,8-diaza-1(3,1)-pyrrolidina-3(1,3)-benzenacyclododecaphane-10-yl)acetamide] | 
< 100 nM | Cc1ccc2cc1CNC(=O)[C@H](CCc1ccccc1)NC(=O)[C@@H](NC(=O)Cc1ccc(N)cc1)CC(=O)N1CCC[C@H](CCO2)C1 [Compound 172, 2-(4-aminophenyl)-N-((13R,9S,12S)-5^4-methyl-8,11,14-trioxo-9-phenethyl-4-oxa-7,10-diaza-1(3,1)-piperidina-5(1,3)-benzenacyclotetradecaphane-12-yl)acetamide] | 
100 to 500 nM | CC(=O)N[C@H]1CC(=O)NCCOc2ccc(C)c(c2)CNC(=O)[C@H](CCc2ccccc2)NC1=O [Compound 252, N-((8S,11S)-1^4-methyl-6,9,12-trioxo-11-phenethyl-2-oxa-5,10,13-triaza-1(1,3)-benzenacyclotetradecaphane-8-yl)acetamide] | 
100 to 500 nM | Cc1ccc2cc1CNC(=O)[C@H](CCc1ccccc1)NC(=O)[C@@H](NC(=O)Cc1ccc(N)cc1)CC(=O)N1CCC[C@@H](CCO2)C1 [Compound 173, 2-(4-aminophenyl)-N-((13S,9S,12S)-5^4-methyl-8,11,14-trioxo-9-phenethyl-4-oxa-7,10-diaza-1(3,1)-piperidina-5(1,3)-benzenacyclotetradecaphane-12-yl)acetamide] | 
< 100 nM | CC(=O)N[C@H]1CC(=O)N2CCCC(CCOc3ccc(C)c(c3)CNC(=O)C(CCc3ccccc3)NC1=O)C2 (stereo partly drawn) [Compound 550, N-((12S)-5^4-methyl-8,11,14-trioxo-9-phenethyl-4-oxa-7,10-diaza-1(3,1)-piperidina-5(1,3)-benzenacyclotetradecaphane-12-yl)acetamide] | 
